In US20240252463A1, “METHODS OF TREATING FIBROTIC PATHOLOGIES” (Mayo Foundation for Medical Education and Research, priority 2018, published 2024):
Counter-ions that a name gives are not always drawn. Like-named read-outs stand apart in the source and are kept apart here.

What was measured:
Format in all cases: cell-based, human
[1] = system: YAP/TAZ; assay: YAP/TAZ nuclear localization (immunofluorescence, automated imaging) in IPF patient-derived lung fibroblasts; details: 10 μM, treated 2 hours prior to fixation; for Nuclear localization (% of total cells) IPF-1: patient sample IPF-1; for Nuclear localization (% of total cells) IPF-2: patient sample IPF-2; for Nuclear localization (% of total cells) IPF-3: patient sample IPF-3; for Nuclear localization (% of total cells) IPF-4: patient sample IPF-4
Procedure: 27A. […] IPF patient-derived lung fibroblasts cells treated 2 hours prior to fixation with diverse dopaminergic agonists (10 μM). N=4 different patient samples. % nuclear localization of YAP/TAZ was determined using automated imaging software. Scale bar represents 100 μm. 27C. cAMP measured in IPF patient-derived fibroblasts treated for 20 minutes with DHX. N=3. 27E.
(§1) ImmunofluorescenceMicroscopy: Cells were plated into 96 well plates (Corning 3603) in their specific growth media and allowed to attach (8 hours). Media was then exchanged for the indicated conditions for each experiment. Cells were fixed in 3.7% formalin (Sigma-Aldrich), permeabilized in 0.25% Triton X-100 (Sigma-Aldrich) and then blocked with 1% BSA for 1 h. Cells or tissue sections were incubated overnight with mouse monoclonal antibody against αSMA (Sigma-Aldrich F3777), and/or a rabbit monoclonal antibody against YAP/TAZ (Cell Signaling D24E4) diluted 1:200 in PBS with 1% BSA. Cells were then washed and exposed to flourescence-conjugated secondary antibodies (Invitrogen) diluted 1:1000 and DAPI (Thermo Fisher Scientific). Images were taken with a Cytation5 (BioTek) microscope. For scoring αSMA positive cells (FIG. 3b), an observer blinded to the treatment conditions counted αSMA-positive cells using a visual threshold for bright fibrous staining; a minimum of 200 cells was counted for each condition. YAP/TAZ localization was quantified (FIG. 2, 6, 8) using Gen5 (Biotek) software. Images were taken at 4× magnification of both DAPI and YAP/TAZ staining. […] Quantification of double positive (YAP/TAZ and αSMA) cells from lung tissue sections (FIG. 4d) was performed similarly; however separate thresholds were established for both YAP/TAZ and αSMA. A minimum of 4000 cells was quantified for each mouse.

[2] = system: αSMA; assay: αSMA intensity (fibroblast activation) in IPF patient-derived lung fibroblasts + TGFβ; details: 1 μM + TGFβ, treated for 72 hours; for activity at 1 µM: Homo sapiens, SMA
Procedure: as §1

[3] = system: YAP/TAZ; assay: YAP/TAZ nuclear localization in IMR-90 and other mesenchymal cells (cardiac, dermal fibroblasts, hepatic stellate cells); details: FIG. 6c
Procedure: FIGS. 2A-2E Dopamine Receptor D1 agonism blocks YAP/TAZ nuclear localization. 2a. Selective agonists of dopamine receptor D1 with varying efficacy inhibit YAP/TAZ nuclear localization; this effect can be overcome by treatment with a DRD1 receptor antagonist (SCH 39166, 3 μM), (Dihydrexidine, 10 μM). IMR-90 cells treated 2 hours prior to fixation. N=4 (****p<0.0001 vs. 0.1% DMSO vehicle control). Scale bar represents 100 μm. 2b. Consistent with DRD1 expression, DHX inhibits YAP/TAZ only in fibroblasts (IPF-FBs) but not in epithelial (NHEpCs) or endothelial (NHMVECs) cells. N=4 (****p<0.0001 vs. 0.1% DMSO vehicle control) 2c. YAP/TAZ localization is induced through multiple ligands which stimulate receptors coupled to Galphαi/q/12, endothelin 1 (ET-1: 100 nM), lysophosphatidic acid (LPA: 10 μM), and serotonin (5-HT: 1 μM). In each case DHX treatment (10 μM) can reverse this effect on YAP/TAZ. IMR-90 cells plated densely onto plastic cell culture plates for 24 hours in media containing 0.1% FBS, treated for 2 hours prior to fixation. N=4 (****p<0.0001 vs. 0.1% DMSO vehicle control), (++++p<0.0001 vs. the respective stimulated agonist ET-1, LPA, or 5-HT). Scale bar represents 100 μm. 2d. cAMP measured in IPF patient-derived fibroblasts treated for 20 minutes with DHX (10 μM)+/−SCH 39166 (3 μM). N=3 (**p<0.01 vs. 0.1% DMSO vehicle control). 2e. Phosphorylation of YAP by Rho-kinase inhibitor Y27632 (20 μM), direct cAMP stimulator Forskolin (10 μM), or DHX (10 μM). IMR-90 cells cultured for 24 hours in media containing 0.1% FBS, treated 2 hours prior to fixation. N=3 (***p<0.001 vs. 0.1% DMSO vehicle control).
FIGS. 6A-6C DHX inhibits YAP/TAZ localization in fibroblasts from multiple tissues. 6a. Mesenchymal cells derived from lung (IMR-90 and IPF-FBs) hepatic stellate cells (HSC), human adult cardiac fibroblasts, (HACF) and human dermal fibroblasts (HDF) were plated densely (Confluent) or sparsely (Control and all remaining conditions) onto plastic cell culture plates for 24 hours in media containing 0.1% FBS, treated for 2 hours with Rho kinase inhibitor Y27632, adenylate cyclase activator forskolin and DHX. N=4, Cells that were positive for nuclear YAP/TAZ were quantified by automated image analysis. 6b. Time course for DHX inhibition of YAP/TAZ nuclear localization. IMR-90 cells, N=3 (***p<0.001 vs. 0.1% DMSO vehicle control). 6c. […] N=3.
as §1

## CCCN1CCC[C@@H]2Cc3nc(N)ncc3C[C@H]21.Cl.Cl [LY-163,502•2HCl]
[1]
  Nuclear localization (% of total cells) IPF-1: 73.37 % of total cells
  Nuclear localization (% of total cells) IPF-2: 60.97 % of total cells
  Nuclear localization (% of total cells) IPF-3: 59.43 % of total cells
  Nuclear localization (% of total cells) IPF-4: 66.49 % of total cells
[2]; patient sample IPF-1
  αSMA intensity (% of DMSO control) IPF-1: 88.99 % of DMSO control
[2]; patient sample IPF-2
  αSMA intensity (% of DMSO control) IPF-2: 72.86 % of DMSO control
[2]; patient sample IPF-3
  αSMA intensity (% of DMSO control) IPF-3: 75.3 % of DMSO control
[2]; patient sample IPF-4
  αSMA intensity (% of DMSO control) IPF-4: 86.7894 % of DMSO control

## CNCCc1ccc(O)c(O)c1 [N-Methyldopamine•HCl, N-Methyldopamine]
[1]
  Nuclear localization (% of total cells) IPF-1: 43.16 % of total cells
  Nuclear localization (% of total cells) IPF-2: 46.73 % of total cells
  Nuclear localization (% of total cells) IPF-3: 60.11 % of total cells
  Nuclear localization (% of total cells) IPF-4: 70.44 % of total cells
[2]; patient sample IPF-1, read-out: αSMA intensity (% of DMSO control) IPF-1
  activity at 1 µM: 43.2%
[2]; patient sample IPF-2, read-out: αSMA intensity (% of DMSO control) IPF-2
  activity at 1 µM: 17.7%
[2]; patient sample IPF-3, read-out: αSMA intensity (% of DMSO control) IPF-3
  activity at 1 µM: 29%
[2]; patient sample IPF-4, read-out: αSMA intensity (% of DMSO control) IPF-4
  activity at 1 µM: 14.7%

## Cc1cccc(C(=O)NCN2CCN(c3ccccc3C#N)CC2)c1.O=C(O)/C=C\C(=O)O [PD 168077 maleate]
[1]
  Nuclear localization (% of total cells) IPF-1: 67.08 % of total cells
  Nuclear localization (% of total cells) IPF-2: 42.44 % of total cells
  Nuclear localization (% of total cells) IPF-3: 63.68 % of total cells
  Nuclear localization (% of total cells) IPF-4: 68.4 % of total cells
[2]; patient sample IPF-1
  αSMA intensity (% of DMSO control) IPF-1: 75.27 % of DMSO control
[2]; patient sample IPF-2
  αSMA intensity (% of DMSO control) IPF-2: 56.15 % of DMSO control
[2]; patient sample IPF-3
  αSMA intensity (% of DMSO control) IPF-3: 75.77 % of DMSO control
[2]; patient sample IPF-4
  αSMA intensity (% of DMSO control) IPF-4: 66.5 % of DMSO control

## CCCCC[C@H](O)/C=C/[C@H]1[C@H](O)CC(=O)[C@@H]1C/C=C\CCCC(=O)O [PGE2, Prostaglandin E2]
[3]
  potency of inhibition of YAP/TAZ nuclear localization, normal lung fibroblasts vs IPF-derived: reduced potency

## Br.C=CCN1CCc2c(cc(O)c(O)c2Br)[C@@H](c2ccccc2)C1 [R(+)-6-BROMO-APB•HBr, R(+)-6-bromo-APB]
[1]
  Nuclear localization (% of total cells) IPF-1: 28.37 % of total cells
  Nuclear localization (% of total cells) IPF-2: 38 % of total cells
  Nuclear localization (% of total cells) IPF-3: 36 % of total cells
  Nuclear localization (% of total cells) IPF-4: 25.65 % of total cells
[2]; patient sample IPF-1
  αSMA intensity (% of DMSO control) IPF-1: 11.25 % of DMSO control
[2]; patient sample IPF-2
  αSMA intensity (% of DMSO control) IPF-2: 2.507 % of DMSO control
[2]; patient sample IPF-3
  αSMA intensity (% of DMSO control) IPF-3: 0.8506 % of DMSO control
[2]; patient sample IPF-4
  αSMA intensity (% of DMSO control) IPF-4: 22.82 % of DMSO control

## Br.CCCN1CCc2cc(O)cc3c2[C@H]1Cc1ccc(O)c(O)c1-3 [R(−)-2,10,11-Trihydroxy-N-propyl-noraporphine]
[1]
  Nuclear localization (% of total cells) IPF-1: 32.87 % of total cells
  Nuclear localization (% of total cells) IPF-2: 35.25 % of total cells
  Nuclear localization (% of total cells) IPF-3: 37.7 % of total cells
  Nuclear localization (% of total cells) IPF-4: 25.36 % of total cells
[2]; patient sample IPF-1
  αSMA intensity (% of DMSO control) IPF-1: 4.895 % of DMSO control
[2]; patient sample IPF-2
  αSMA intensity (% of DMSO control) IPF-2: 8.436 % of DMSO control
[2]; patient sample IPF-3
  αSMA intensity (% of DMSO control) IPF-3: 2.988 % of DMSO control
[2]; patient sample IPF-4
  αSMA intensity (% of DMSO control) IPF-4: 25.61 % of DMSO control

## COc1ccc2c(c1O)-c1cc(O)cc3c1[C@@H](C2)N(C)CC3.Cl [R(−)-2,11-dihydroxy-10-methoxyapomorphine]
[1]
  Nuclear localization (% of total cells) IPF-1: 85.18 % of total cells
  Nuclear localization (% of total cells) IPF-2: 74.67 % of total cells
  Nuclear localization (% of total cells) IPF-3: 80.73 % of total cells
  Nuclear localization (% of total cells) IPF-4: 80.45 % of total cells
[2]; patient sample IPF-1
  αSMA intensity (% of DMSO control) IPF-1: 91.84 % of DMSO control
[2]; patient sample IPF-2
  αSMA intensity (% of DMSO control) IPF-2: 92.8 % of DMSO control
[2]; patient sample IPF-3
  αSMA intensity (% of DMSO control) IPF-3: 81.85 % of DMSO control
[2]; patient sample IPF-4
  αSMA intensity (% of DMSO control) IPF-4: 85.61 % of DMSO control
